Literature values, collected in publication PMC2930141 (Biochimica et biophysica acta, 2010).

Key:
[1] = aqueous
[2] = tested on: hCA I; details: bound to hCA I
[3] = molecular target: human carbonic anhydrase I (hCA I) (Homo sapiens, UniProt P00915)
[4] = tested on: hCA II

Chain of human carbonic anhydrase I (hCA I) (P00915 whole entry): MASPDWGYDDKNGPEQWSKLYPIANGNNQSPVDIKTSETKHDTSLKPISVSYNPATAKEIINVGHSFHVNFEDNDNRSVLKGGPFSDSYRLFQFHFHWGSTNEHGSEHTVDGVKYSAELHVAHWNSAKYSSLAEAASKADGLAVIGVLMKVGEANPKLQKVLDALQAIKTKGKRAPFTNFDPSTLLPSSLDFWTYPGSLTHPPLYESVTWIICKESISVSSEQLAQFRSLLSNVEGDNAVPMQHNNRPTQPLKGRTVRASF

Row | pKa of sulfonamide group [1] | pKa from pH dependent binding affinity [2] | emission maximum of the enzyme-bound fluorophore [3] [nm] | pKa from pH dependent binding affinity [4] | Compound
1 | 9.79 | – | – | – | NS(=O)(=O)c1ccccc1 [benzenesulfonamide]
2 | – | 6.3 | 458 | 6.4 | CN(C)c1cccc2c(S(N)(=O)=O)cccc12 [dansylamide, 5-dimethylamino-1-naphthalene sulfonamide]
